Test results: patent US11691989B2, “Macrocyclic indoles as Mcl-1 inhibitors” (ASCENTAGE PHARMA (SUZHOU) CO., LTD., priority 2018, dated 2023)

Tests used:
[1] = Microsome clearance assay, rat; format: in vitro ADME; conditions: 0.5 mg/ml protein, 1 mM NADPH, 60 minutes; for Rat Liver Microsome Clint (μL/min/mg protein): rat liver microsomes, 5 μM; for microsomal CLint at 5 μM: male, Wister, rat, pooled liver microsomes, pH 7.4, rat liver microsomes, read-out: Rat Liver Microsome Clint (μL/min/mg protein)
Experimental: (§1) Representative Compounds of the Disclosure were tested in a microsome clearance assay. Pooled liver microsomes (20 mg/ml) from human, male Wister rat, and male CD-1 mouse were obtained from BD Bioscience (Franklin Lakes, N.J. USA). Incubation reaction mixtures contained a final concentration of 0.1M sodium phosphate buffer (pH 7.4), 0.5 mg/ml microsomal protein, 5 μM of test sample and 1 mM NADPH in a total volume of 400 μl. The incubations were done for 60 minutes and 300 μl of the mixtures was transferred to 150 μl of ice cold methanol to terminate reactions. After vortexes for 3 minutes and centrifuged at 4000 rpm at 4° C. for 10 minutes, the clear supernatant was used directly for analysis. The samples were analyzed by Applied Biosystems API 3200 Q TRAP LC/MS/MS system using electrospray ionization mode.

[2] = Microsome clearance assay, mouse; format: in vitro ADME; conditions: 0.5 mg/ml protein, 1 mM NADPH, 60 minutes; for Mouse Liver Microsome Clint (μL/min/mg protein): mouse liver microsomes, 5 μM; for microsomal CLint at 5 μM: male, CD-1, mouse, pooled liver microsomes, pH 7.4, mouse liver microsomes, read-out: Mouse Liver Microsome Clint (μL/min/mg protein)
Experimental: as §1

[3] = target: Mcl-1 protein (residues 171-323) (Homo sapiens (Human), UniProt Q07820); experiment: Inhibition of Mcl-1 by fluorescence polarization (FP) competitive binding assay with FAM-Bid tracer; conditions: 2 nM FAM-Bid, 20 nM Mcl-1, 30 min, read-out: Mc1-1 (FP)
Method in brief: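 Competitive FP binding of compounds against FAM-Bid tracer (final 2 nM) on Mcl-1 (final 20 nM) in PBS with 0.01% BGG and 0.01% Triton X-100, 5% final DMSO.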

[4] = Microsome clearance assay, human; format: in vitro ADME; conditions: 0.5 mg/ml protein, 1 mM NADPH, 60 minutes; for Human Liver Microsome Clint (μL/min/mg protein): human liver microsomes, 5 μM; for microsomal CLint at 5 μM: human, pooled liver microsomes, pH 7.4, human liver microsomes, read-out: Human Liver Microsome Clint (μL/min/mg protein)
Experimental: as §1

[5] = Kinetic solubility assay in PBS buffer; format: physicochemical; conditions: for solubility: PBS buffer, pH 6.5, aqueous buffer, thermodynamic from solid, read-out: Solubility (pH 6.5, μg/mL)
Experimental: Representative Compounds of the Disclosure were tested in a kinetic solubility assay in PBS buffer. PBS buffer was prepared by dissolving 4.86 g of potassium dihydrogen phosphate and 5.09 g of disodium hydrogen phosphate dodecahydrate in 1 L of ultrapure water (final pH 6.5). 0.5 mg of test sample was dissolved in 1 mL of methanol and the stock solution was transferred into 2 mL EP tube, and evaporated at 50° C. for 3 h. To the tube was added 1 mL of PBS buffer and the mixture was stirred and shaken for 1-2 h. The solution was allowed to stand overnight and then filtered before HPLC analysis. Another 1.5 mg of the sample was dissolved in 3 mL of methanol to prepare a calibration curve with a series of concentration range of 5-500 μM. The solubility of each sample was determined by the measured peak area in HPLC.

OPM-2 cells = experiment: Cell viability assay (OPM-2 cells), CCK-8; format: cell-based; conditions: 5% FBS
Method in brief: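 OPM-2 myeloma cells (20000/well) incubated with serially diluted compound for 24 h at 37 °C, 5% CO2. Viability read by CCK-8 (4 h) absorbance at 450 nm, normalised to vehicle; IC50 from nonlinear regression.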

NCI-H929 cells = experiment: Cell viability assay (NCI-H929 cells), CCK-8; format: cell-based; conditions: 5% FBS
Method in brief: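 NCI-H929 cells (20000/well) exposed to serially diluted compounds for 24 h at 37 °C, 5% CO2. Viability by CCK-8, absorbance at 450 nm after 1-4 h, normalized to vehicle-treated cells. IC50 by nonlinear regression.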

Sequence of Mcl-1 protein (residues 171-323) (Q07820 171-323): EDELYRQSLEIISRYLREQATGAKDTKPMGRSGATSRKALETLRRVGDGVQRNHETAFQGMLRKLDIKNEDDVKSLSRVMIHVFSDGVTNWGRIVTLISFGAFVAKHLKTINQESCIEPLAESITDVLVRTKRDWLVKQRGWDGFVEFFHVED

Row | SMILES | Rat Liver Microsome Clint (μL/min/mg protein) [1] [μL/min/mg protein] | Mouse Liver Microsome Clint (μL/min/mg protein) [2] [μL/min/mg protein] | IC50 [3] [µM] | Human Liver Microsome Clint (μL/min/mg protein) [4] [μL/min/mg protein] | Solubility (pH 6.5, μg/mL) ([5]; PBS buffer pH 6.5) [μg/mL] | IC50 (OPM-2 cells; 24 hours) [µM] | IC50 (NCI-H929 cells; 24 hrs) [µM] | microsomal CLint at 5 μM [1] [µL/min/mg] | microsomal CLint at 5 μM [2] [µL/min/mg] | microsomal CLint at 5 μM [4] [µL/min/mg] | solubility [5] [µg/mL] | IC50 (OPM-2 cells; Homo sapiens, OPM-2, 24 h) [µM] | IC50 (NCI-H929 cells; Homo sapiens, NCI-H929, 24 h) [µM]
1 | Cc1c(C(=O)O)n2c3ccc(Cl)c(c13)-c1c(nn(C)c1C)CSCc1cc(n(C)n1)CSc1cc(c3ccccc3c1)OCCC2 (atropisomer, axis not shown) [Cpd. No. 7, (S)-(Z)-1^5-chloro-1^3,2^1,2^5,6^1-tetramethyl-1^1H,2^1H,6^111-10-oxa-4,8-dithia-1(4,1)-indola-2(4,3),6(3,5)-dipyrazola-9(3,1)-naphthalenacyclotridecaphane-1^2-carboxylic acid] | 111 | 245 | > 1 | 38.0 | 6 | > 10 | 7.44 |  |  |  |  |  | 
2 | Cc1c(C(=O)O)n2c3ccc(Cl)c(c13)-c1c(nn3c1CCC3)CSCc1cc(n(C)n1)CSc1cc(c3ccc(F)cc3c1)OCCC2 [Cpd. No. 2, (Z)-1^5-chloro-9^6-fluoro-1^3,6^1-dimethyl-2^5,2^6-dihydro-1^1H,2^4H,6^1H-10-oxa-4,8-dithia-1(4,1)-indola-2(3,2)-pyrrolo[1,2-b]pyrazola-6(3,5)-pyrazola-9(3,1)-naphthalenacyclotridecaphane-1^2-carboxylic acid] |  |  | 0.014 |  |  |  |  | 31.2 | 53 | 18.2 | < 1 | 0.22 | 0.053
3 | Cc1c(C(=O)O)n2c3ccc(Cl)c(c13)-c1c(nn3c1CC(C)(C)C3)CSCc1cc(n(C)n1)CSc1cc(c3ccc(F)cc3c1)OCCC2 [Cpd. No. 3, (Z)-1^5-chloro-9^6-fluoro-1^3,2^5,2^5,6^1-tetramethyl-2^5,2^6-dihydro-1^1H,2^4H,6^1H-10-oxa-4,8-dithia-1(4,1)-indola-2(3,2)-pyrrolo[1,2-b]pyrazola-6(3,5)-pyrazola-9(3,1)-naphthalenacyclotridecaphane-1^2-carboxylic acid] |  |  | 0.014 |  |  |  |  |  |  |  | < 1 | 0.386 | 0.391
4 | Cc1c2c(nn1C)CSCc1cc(n(C)n1)CSc1cc(c3ccccc3c1)OCCCn1c(C(=O)O)c(Cl)c3c-2c(Cl)ccc31 [Cpd. No. 9, (Z)-1^3,1^5-dichloro-2^1,2^5,6^1-trimethyl-1^1H,2^1H,6^1H-10-oxa-4,8-dithia-1(4,1)-indola-2(4,3),6(3,5)-dipyrazola-9(3,1)-naphthalenacyclotridecaphane-1^2-carboxylic acid] |  |  | 0.014 |  |  |  |  |  |  |  | > 400 | 1.25 | 0.479
5 | Cc1c(C(=O)O)n2c3ccc(Cl)c(c13)-c1c(nn3c1COCC3)CN(S(=O)(=O)C1CC1)Cc1cc(n(C)n1)CSc1cc(c3ccc(F)cc3c1)OCCC2 [Cpd. No. 31, (Z)-1^5-chloro-4-(cyclopropylsulfonyl)-9^6-fluoro-1^3, 6^1-di methyl-2^6,2^7-dihydro-1^1H,2^4H,6^1H-10-oxa-8-thia-4-aza-2(3,2)-pyrazolo[5,1-c][1,4]oxazina-1(4,1)-indola-6(3,5)-pyrazola-9(3,1)-naphthalenacyclotridecaphane-1^2-carboxylic acid] |  |  | 0.016 |  |  |  |  | 33 | 45.2 | 7.4 |  | 1.94 | 0.623
6 | Cc1c(C(=O)O)n2c3ccc(Cl)c(c13)-c1c(nn(C)c1C)CN(S(C)(=O)=O)Cc1cc(n(C)n1)CSc1cc(c3ccc(F)cc3c1)OCCC2 [Cpd. No. 34, (S)-(Z)-1^5-chloro-9^6-fluoro-1^3,2^1,2^5,6^1-tetramethyl-4-(methylsulfonyl)-1^1H,2^1H, 6^1H-10-oxa-8-thia-4-aza-1(4,1)-indola-2(4,3),6(3,5)-dipyrazola-9(3,1)-naphthalenacyclotridecaphane-1^2-carboxylate] | 13.0 | 110 | 2.6 | <2.8 |  | > 10 | 8.52 |  |  |  |  |  | 
7 | Cc1c(C(=O)O)n2c3ccc(Cl)c(c13)-c1c(nn(C)c1C)CN(S(=O)(=O)C(F)(F)F)Cc1cc(n(C)n1)CSc1cc(c3ccc(F)cc3c1)OCCC2 [Cpd. No. 35, (Z)-1^5-chloro-9^6-fluoro-1^3,2^1,2^5,6^1-tetramethyl-4-((trifluoromethyl)sulfonyl)-1^1H,2^1H,6^1H-10-oxa-8-thia-4-aza-1(4,1)-indola-2(4,3),6(3,5)-dipyrazola-9(3,1)-naphthalenacyclotridecaphane-1^2-carboxylic acid] |  |  | 0.015 |  |  |  |  | 42 | 156 | 53.2 |  | 0.057 | 0.025
8 | Cc1c(C(=O)O)n2c3ccc(Cl)c(c13)-c1c(nn(C)c1C)CN(S(C)(=O)=O)Cc1cc(n(C)n1)CSc1cc(c3ccccc3c1)OCCC2 [Cpd. No. 46, (Z)-1^5-chloro-1^3,2^1,2^5,6^1-tetramethyl-4-(methylsulfonyl)-1^11-1,2^1H,6^1H-10-oxa-8-thia-4-aza-1(4,1)-indola-2(4,3),6(3,5)-dipyrazola-9(3,1)-naphthalenacyclotridecaphane-1^2-carboxylic acid] |  |  | 0.008 |  |  |  |  | 21.6 | 43.4 | 8 |  | 0.637 | 0.3
9 | COCCN1Cc2cc(n(C)n2)CSc2cc(c3ccc(F)cc3c2)OCCCn2c(C(=O)O)c(C)c3c(c(Cl)ccc32)-c2c(nn3c2COCC3)C1 [Cpd. No. 50, (Z)-1^5-chloro-9^6-fluoro-4-(2-methoxyethyl)-1^3, 6^1-dim ethyl-2^6,2^7-dihydro-1^1H,2^4H,6^1H-10-oxa-8-thia-4-aza-2(3,2)-pyrazolo[5,1-c][1,4]oxazina-1 (4,1)-indola-6(3,5)-pyrazola-9(3,1)-naphthalenacyclotridecaphane-1^2-carboxylic acid] |  |  | 0.02 |  |  |  |  | 22.2 | 65.2 | 10.2 |  | 1.64 | 0.226
10 | Cc1c(C(=O)O)n2c3ccc(Cl)c(c13)-c1c(nn3c1COCC3)CN(CCNS(C)(=O)=O)Cc1cc(n(C)n1)CSc1cc(c3ccc(F)cc3c1)OCCC2 [Cpd. No. 51, (Z)-1^5-chloro-9^6-fluoro-1^3, 6^1-di methyl-4-(2-(methylsulfonamido)ethyl)-26,27-dihydro-1^1H,2^4H,6^1H-10-oxa-8-thia-4-aza-2(3,2)-pyrazolo[5,1-c][1,4]oxazina-1(4,1)-indola-6(3,5)-pyrazola-9(3,1)-naphthalenacyclotridecaphane-1^2-carb oxylic acid] |  |  | 0.017 |  |  |  |  | 15 | 30.6 | 7.4 |  | 5.82 | 1.54
11 | Cc1c(C(=O)O)n2c3ccc(Cl)c(c13)-c1c(nn(C)c1C)CN(C(C)C)Cc1cc(n(C)n1)CSc1cc(c3ccc(F)cc3c1)OCCC2 [Cpd. No. 53, (Z)-1^5-chloro-9^6-fluoro-4-isopropyl-1^3,2^1,2^5,6^1-tetramethyl-1^1H,2^1H,6^1H-10-oxa-8-thia-4-aza-1(4,1)-indola-2(4,3),6(3,5)-dipyrazola-9(3,1)-naphthalenacyclotridecaphane-1^2-carboxylic acid] |  |  | 0.034 |  |  |  |  | 30 | 59.2 | 18.6 |  | 1.71 | 0.222
